Experimental data as given in patent US9169254B2, “Spiroimidazolone derivative” (Chugai Seiyaku Kabushiki Kaisha, priority 2009, dated 2015).

What follows are compounds tested against T1, human PTH1 receptor (Homo sapiens, UniProt Q03431) (assay: In vitro cAMP signal activity in HKRK-B7 cells (LLC-PK1 cells overexpressing the human PTH1 receptor)). Conditions: HKRK-B7 cells; compound at 1×10^−3 M; cAMP produced as percentage of that produced by hPTH(1-34) at 100 nM.
T1 sequence (Q03431 27-593): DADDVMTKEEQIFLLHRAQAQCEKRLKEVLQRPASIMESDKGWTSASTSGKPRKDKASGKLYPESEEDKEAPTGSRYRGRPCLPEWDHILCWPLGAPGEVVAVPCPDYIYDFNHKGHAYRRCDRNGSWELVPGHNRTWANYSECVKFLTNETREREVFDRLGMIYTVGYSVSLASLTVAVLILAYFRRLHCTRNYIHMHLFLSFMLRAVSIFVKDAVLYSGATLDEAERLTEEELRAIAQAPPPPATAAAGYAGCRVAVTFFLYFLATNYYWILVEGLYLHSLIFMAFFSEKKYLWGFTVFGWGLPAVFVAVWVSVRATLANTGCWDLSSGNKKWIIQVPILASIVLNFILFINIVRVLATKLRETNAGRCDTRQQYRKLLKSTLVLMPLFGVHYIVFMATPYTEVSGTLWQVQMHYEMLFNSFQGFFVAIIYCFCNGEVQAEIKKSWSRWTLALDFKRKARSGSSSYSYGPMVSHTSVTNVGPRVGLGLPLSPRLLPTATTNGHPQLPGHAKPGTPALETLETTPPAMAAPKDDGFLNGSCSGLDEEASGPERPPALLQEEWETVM
Format: cell-based

cAMP production activity (%) | SMILES
41% | Nc1cccc(CCCS(=O)(=O)N2CCC3(CC2)N=C(C2CCCCC2)NC3=O)c1 [Compound 328, 8-[3-(3-Amino-phenyl)-propane-1-sulfonyl]-2-cyclohexyl-1,3,8-triaza-spiro[4.5]dec-1-en-4-one]
33% | CN(C)C(=O)c1ccc(-c2ccc(S(=O)(=O)N3CCC4(CC3)N=C(c3cccc(C(F)(F)F)c3)NC4=O)s2)cc1 [Compound 329, N,N-Dimethyl-4-{5-[4-oxo-2-(3-trifluoromethyl-phenyl)-1,3,8-triaza-spiro[4.5]dec-1-ene-8-sulfonyl]-thiophen-2-yl}-benzamide]
23% | CN(C)C(=O)c1cccc(-c2ccc(S(=O)(=O)N3CCC4(CC3)N=C(c3cccc(C(F)(F)F)c3)NC4=O)s2)c1 [Compound 330, N,N-dimethyl-3-{5-[4-oxo-2-(3-trifluoromethyl-phenyl)-1,3,8-triaza-spiro[4.5]dec-1-ene-8-sulfonyl]-thiophen-2-yl}-benzamide]
55% | Cc1cc(C(=O)N(C)C)ccc1-c1ccc(S(=O)(=O)N2CCC3(CC2)N=C(c2cccc(C(F)(F)F)c2)NC3=O)s1 [Compound 331, 3,N,N-trimethyl-4-{5-[4-oxo-2-(3-trifluoromethyl-phenyl)-1,3,8-triaza-spiro[4.5]dec-1-ene-8-sulfonyl]-thiophen-2-yl}-benzamide]
90% | CC(=O)Nc1ccc(-c2ccc(S(=O)(=O)N3CCC4(CC3)N=C(C3CCCCC3)NC4=O)s2)c(C)c1 [Compound 332, N-{4-[5-(2-cyclohexyl-4-oxo-1,3,8-triaza-spiro[4.5]dec-1-ene-8-sulfonyl)-thiophen-2-yl]-3-methyl-phenyl}-acetamide]
87% | Cc1cc(C(=O)N(C)C)ccc1-c1ccc(S(=O)(=O)N2CCC3(CC2)N=C(c2ccc(F)c(C(F)(F)F)c2)NC3=O)s1 [Compound 333, 4-{5-[2-(4-fluoro-3-trifluoromethyl-phenyl)-4-oxo-1,3,8-triaza-spiro[4.5]dec-1-ene-8-sulfonyl]-thiophen-2-yl}-3,N,N-trimethyl-benzamide]
34% | Cc1ccc(C(=O)N(C)C)cc1-c1ccc(S(=O)(=O)N2CCC3(CC2)N=C(c2ccc(F)c(C(F)(F)F)c2)NC3=O)s1 [Compound 334, 3-{5-[2-(4-fluoro-3-trifluoromethyl-phenyl)-4-oxo-1,3,8-triaza-spiro[4.5]dec-1-ene-8-sulfonyl]-thiophen-2-yl}-4,N,N-trimethyl-benzamide]
28% | Cc1cc(C(=O)N(C)C)ccc1-c1cccc(S(=O)(=O)N2CCC3(CC2)N=C(c2cccc(OC(F)(F)F)c2)NC3=O)c1 [Compound 335, 2-methyl-3′-[4-oxo-2-(3-trifluoromethoxy-phenyl)-1,3,8-triaza-spiro[4.5]dec-1-ene-8-sulfonyl]-biphenyl-4-carboxylic acid dimethylamide]
28% | Cc1cc(C(=O)N(C)C)ccc1-c1ccc(S(=O)(=O)N2CCC3(CC2)N=C(c2cccc(OC(F)(F)F)c2)NC3=O)cc1 [Compound 336, 2-methyl-4′-[4-oxo-2-(3-trifluoromethoxy-phenyl)-1,3,8-triaza-spiro[4.5]dec-1-ene-8-sulfonyl]-biphenyl-4-carboxylic acid dimethylamide]
17% | Cc1cc(C(=O)N(C)C)ccc1-c1cccc(S(=O)(=O)N2CCC3(CC2)N=C(c2cccc(OC(F)(F)F)c2)NC3=O)n1 [Compound 337, 3,N,N-trimethyl-4-{6-[4-oxo-2-(3-trifluoromethoxy-phenyl)-1,3,8-triaza-spiro[4.5]dec-1-ene-8-sulfonyl]-pyridin-2-yl}-benzamide]
60% | Cc1noc(C)c1-c1ccccc1CCS(=O)(=O)N1CCC2(CC1)N=C(C1CCCCC1)NC2=O [Compound 338, 2-Cyclohexyl-8-{2-[2-(3,5-dimethyl-isoxazol-4-yl)-phenyl]-ethanesulfonyl}-1,3,8-triaza-spiro[4.5]dec-1-en-4-one]

More lines, now with the values behind:

SMILES | cAMP production activity (%)
CS(=O)(=O)n1ccc2c(CCS(=O)(=O)N3CCC4(CC3)N=C(C3CCCCC3)NC4=O)cccc21 [Compound 312, 2-cyclohexyl-8-[2-(1-methanesulfonyl-1H-indol-4-yl)-ethanesulfonyl]-1,3,8-triaza-spiro[4.5]dec-1-en-4-one] | 49%
CN(C)CCn1ccc2c(CCS(=O)(=O)N3CCC4(CC3)N=C(C3CCCCC3)NC4=O)cccc21 [Compound 313, 2-cyclohexyl-8-{2-[1-(2-dimethylamino-ethyl)-1H-indol-4-yl]-ethanesulfonyl}-1,3,8-triaza-spiro[4.5]dec-1-en-4-one] | 63%
Nc1ccc(CCS(=O)(=O)N2CCC3(CC2)N=C(C2CCCCC2)NC3=O)c(C(F)(F)F)c1 [Compound 314, 8-[2-(4-amino-2-trifluoromethyl-phenyl)-ethanesulfonyl]-2-cyclohexyl-1,3,8-triaza-spiro[4.5]dec-1-en-4-one] | 68%
O=C1NC(C2CCCCC2)=NC12CCN(S(=O)(=O)CCCc1cccc(C(F)(F)F)c1)CC2 [Compound 315, 2-cyclohexyl-8-[3-(3-trifluoromethyl-phenyl)-propane-1-sulfonyl]-1,3,8-triaza-spiro[4.5]dec-1-en-4-one] | 26%
Cc1cccc(CCCS(=O)(=O)N2CCC3(CC2)N=C(C2CCCCC2)NC3=O)c1 [Compound 316, 2-cyclohexyl-8-(3-m-tolyl-propane-1-sulfonyl)-1,3,8-triaza-spiro[4.5]dec-1-en-4-one] | 20%
O=C1NC(C2CCCCC2)=NC12CCN(S(=O)(=O)CCCc1cccc(O)c1)CC2 [Compound 317, 2-cyclohexyl-8-[3-(3-hydroxy-phenyl)-propane-1-sulfonyl]-1,3,8-triaza-spiro[4.5]dec-1-en-4-one] | 62%
O=C1NC(C2CCCCC2)=NC12CCN(S(=O)(=O)CCCc1ccccc1O)CC2 [Compound 318, 2-cyclohexyl-8-[3-(2-hydroxy-phenyl)-propane-1-sulfonyl]-1,3,8-triaza-spiro[4.5]dec-1-en-4-one] | 52%
O=C1NC(C2CCCCC2)=NC12CCN(S(=O)(=O)CCc1csc3ccccc13)CC2 [Compound 319, 8-(2-benzo[b]thiophen-3-yl-ethanesulfonyl)-2-cyclohexyl-1,3,8-triaza-spiro[4.5]dec-1-en-4-one] | 31%
O=C1NC(C2CCCCC2)=NC12CCN(S(=O)(=O)CCc1cccc3cnccc13)CC2 [Compound 320, 2-cyclohexyl-8-(2-isoquinolin-5-yl-ethanesulfonyl)-1,3,8-triaza-spiro[4.5]dec-1-en-4-one] | 33%
Cc1cc(NC[C@H](O)CO)ccc1CCS(=O)(=O)N1CCC2(CC1)N=C(C1CCCCC1)NC2=O [Compound 321, 2-Cyclohexyl-8-{2-[4-((S)-2,3-dihydroxy-propylamino)-2-methyl-phenyl]-ethanesulfonyl}-1,3,8-triaza-spiro[4.5]dec-1-en-4-one] | 55%
O=C1NC(C2CCC(C(F)(F)F)CC2)=NC12CCN(S(=O)(=O)CCc1cccc3c1ccn3C[C@H](O)CO)CC2 (stereo partly drawn) [Compound 322, 8-{2-[1-((S)-2,3-dihydroxy-propyl)-1H-indol-4-yl]-ethanesulfonyl}-2-(4-trifluoromethyl-cyclohexyl)-1,3,8-triaza-spiro[4.5]dec-1-en-4-one] | 75%
O=C1NC(C2CCCCC2)=NC12CCN(S(=O)(=O)CCc1ccccc1C(F)(F)F)CC2 [Compound 323, 2-Cyclohexyl-8-[2-(2-trifluoromethyl-phenyl)-ethanesulfonyl]-1,3,8-triaza-spiro[4.5]dec-1-en-4-one] | 53%
CN(C)C(=O)c1ccc(CCCS(=O)(=O)N2CCC3(CC2)N=C(C2CCCCC2)NC3=O)cc1 [Compound 324, 4-[3-(2-cyclohexyl-4-oxo-1,3,8-triaza-spiro[4.5]dec-1-ene-8-sulfonyl)-propyl]-N,N-dimethyl-benzamide] | 30%
Cc1cc(OC[C@H](O)CO)ccc1CCS(=O)(=O)N1CCC2(CC1)N=C(c1cccc(OC(F)(F)F)c1)NC2=O [Compound 325, 8-{2-[4-((R)-2,3-Dihydroxy-propoxy)-2-methyl-phenyl]-ethanesulfonyl}-2-(3-trifluoromethoxy-phenyl)-1,3,8-triaza-spiro[4.5]dec-1-en-4-one] | 61%
CC(=O)N(CCO)c1ccc(C)c(CCS(=O)(=O)N2CCC3(CC2)N=C(c2cccc(OC(F)(F)F)c2)NC3=O)c1 [Compound 326, N-(2-Hydroxy-ethyl)-N-(4-methyl-3-{2-[4-oxo-2-(3-trifluoromethoxy-phenyl)-1,3,8-triaza-spiro[4.5]dec-1-ene-8-sulfonyl]-ethyl}-phenyl)-acetamide] | 76%
CC(=O)N(CCO)c1cccc(CCS(=O)(=O)N2CCC3(CC2)N=C(c2cccc(OC(F)(F)F)c2)NC3=O)c1C [Compound 327, N-(2-Hydroxy-ethyl)-N-(2-methyl-3-{2-[4-oxo-2-(3-trifluoromethoxy-phenyl)-1,3,8-triaza-spiro[4.5]dec-1-ene-8-sulfonyl]-ethyl}-phenyl)-acetamide] | 84%
